Reference: the NIST ThermoML archive (doi:10.1021/je800110r)

Conditions: 323.14 K, Liquid, Vibrating tube method

CCCCCCCCCC [decane]
Conditions	mass density [kg/m3]
13785 kPa	718.8
13804 kPa	718.9
13828 kPa	718.9
14191 kPa	719.3
14209 kPa	719.3
14225 kPa	719.4
14243 kPa	719.2
14258 kPa	719.3
14293 kPa	719.3
14335 kPa	719.3
14443 kPa	719.4
14465 kPa	719.4
14487 kPa	719.5
14504 kPa	719.5
14521 kPa	719.5
14541 kPa	719.5
14562 kPa	719.5
14576 kPa	719.5
14589 kPa	719.5
14598 kPa	719.5
14609 kPa	719.6
14666 kPa	719.6
14766 kPa	719.7
14778 kPa	719.6
14789 kPa	719.6
14800 kPa	719.6
14810 kPa	719.7
14824 kPa	719.7
14837 kPa	719.7
14850 kPa	719.7
14864 kPa	719.8
14876 kPa	719.8
14889 kPa	719.7
14900 kPa	719.7
14913 kPa	719.8
14923 kPa	719.9
14931 kPa	719.9
14941 kPa	719.8
14955 kPa	719.8
14964 kPa	719.8
14976 kPa	719.9
14990 kPa	719.9
15000 kPa	719.8
15350 kPa	720.2
15364 kPa	720.1
15378 kPa	720.2
15435 kPa	720.1
15447 kPa	720.2
15460 kPa	720.2
15476 kPa	720.3
15490 kPa	720.3
15507 kPa	720.3
15517 kPa	720.2
15527 kPa	720.3
15542 kPa	720.4
15556 kPa	720.2
15567 kPa	720.3
15581 kPa	720.4
15594 kPa	720.3
15610 kPa	720.3
15624 kPa	720.4
15639 kPa	720.3
15655 kPa	720.4
15673 kPa	720.4
15738 kPa	720.4
15754 kPa	720.6
15765 kPa	720.5
15776 kPa	720.5
15787 kPa	720.5
15805 kPa	720.5
15818 kPa	720.6
15829 kPa	720.6
15844 kPa	720.6
15853 kPa	720.6
15866 kPa	720.5
15877 kPa	720.5
15890 kPa	720.5
15904 kPa	720.6
15915 kPa	720.5
15926 kPa	720.6
15940 kPa	720.6
15955 kPa	720.6
15970 kPa	720.6
15982 kPa	720.7
16000 kPa	720.7
16012 kPa	720.6
16029 kPa	720.7
16041 kPa	720.8
16056 kPa	720.6
16067 kPa	720.7
16079 kPa	720.8
16091 kPa	720.8
16100 kPa	720.9
16110 kPa	720.7
16124 kPa	720.7
16136 kPa	720.8
16148 kPa	720.7
16160 kPa	720.7
16175 kPa	720.8
16192 kPa	720.9
16206 kPa	720.8
16223 kPa	720.9
16235 kPa	720.9
16249 kPa	720.9
16265 kPa	720.8
16281 kPa	720.9
16305 kPa	720.9
16323 kPa	720.9
16485 kPa	721.1
16497 kPa	721
16509 kPa	721.1
16526 kPa	721
16540 kPa	721.1
16554 kPa	721.1
16570 kPa	721.1
16583 kPa	721
16614 kPa	721.1
16658 kPa	721.2
17010 kPa	721.4
17025 kPa	721.5
17272 kPa	721.7
17288 kPa	721.6
17305 kPa	721.6
17323 kPa	721.8
17337 kPa	721.8
17350 kPa	721.7
17369 kPa	721.7
17387 kPa	721.7
17405 kPa	721.7
17419 kPa	721.7
17442 kPa	721.7
17455 kPa	721.9
17473 kPa	721.8
17491 kPa	721.9
17510 kPa	721.8
17532 kPa	721.9
17546 kPa	721.9
17561 kPa	721.9
17579 kPa	721.9
17593 kPa	721.9
17612 kPa	722
17645 kPa	721.9
17659 kPa	722
17677 kPa	722
17694 kPa	722
17715 kPa	721.9
17731 kPa	722
17751 kPa	722
17772 kPa	722
17788 kPa	722.1
17805 kPa	722.1
17824 kPa	722.1
17838 kPa	722.1
17860 kPa	722.2
17879 kPa	722.1
17901 kPa	722.3
17922 kPa	722.1
17942 kPa	722.2
17955 kPa	722.2
17972 kPa	722.2
17992 kPa	722.3
18009 kPa	722.3
18023 kPa	722.3
18038 kPa	722.2
18057 kPa	722.1
18072 kPa	722.3
18087 kPa	722.2
18109 kPa	722.2
18131 kPa	722.3
18155 kPa	722.2
18169 kPa	722.3
18192 kPa	722.4
18209 kPa	722.4
18232 kPa	722.4
18247 kPa	722.4
18269 kPa	722.4
18292 kPa	722.4
18310 kPa	722.4
18335 kPa	722.4
18351 kPa	722.5
18374 kPa	722.5
18390 kPa	722.5
18405 kPa	722.5
18423 kPa	722.6
18443 kPa	722.5
18464 kPa	722.6
18487 kPa	722.7
18500 kPa	722.6
18518 kPa	722.7
18543 kPa	722.7
18564 kPa	722.7
18583 kPa	722.6
18598 kPa	722.7
18616 kPa	722.6
18637 kPa	722.7
18660 kPa	722.7
18684 kPa	722.7
18703 kPa	722.7
18735 kPa	722.7
18758 kPa	722.7
18795 kPa	722.8
18816 kPa	722.9
18846 kPa	722.9
18905 kPa	722.9
18921 kPa	722.9
18940 kPa	722.9
18959 kPa	723
18983 kPa	722.9
19005 kPa	723.1
19027 kPa	723
19043 kPa	723
19062 kPa	723.1
19263 kPa	723.2
19308 kPa	723.2
19354 kPa	723.3
19373 kPa	723.3
19390 kPa	723.4
19410 kPa	723.3
19436 kPa	723.3
19461 kPa	723.4
19485 kPa	723.4
19509 kPa	723.4
19574 kPa	723.4
19594 kPa	723.5
19637 kPa	723.4
19655 kPa	723.6
19672 kPa	723.5
19720 kPa	723.6
19741 kPa	723.5
19760 kPa	723.6
19777 kPa	723.6
19795 kPa	723.6
19813 kPa	723.6
19840 kPa	723.6
19867 kPa	723.7
19891 kPa	723.7
19912 kPa	723.8
19936 kPa	723.7
19957 kPa	723.7
20009 kPa	723.8
20031 kPa	723.8
20049 kPa	723.7
20080 kPa	723.8
20105 kPa	723.9
20127 kPa	723.9
20154 kPa	723.9
20176 kPa	723.9
20191 kPa	723.9
20210 kPa	724
20235 kPa	723.9
20257 kPa	724
20286 kPa	724
20304 kPa	723.8
20323 kPa	724
20345 kPa	724
20363 kPa	724
20389 kPa	724.1
20431 kPa	724.2
20462 kPa	724
20482 kPa	724.2
20504 kPa	724.1
20520 kPa	724.2
20562 kPa	724.2
20584 kPa	724.3
20607 kPa	724.2
20630 kPa	724.1
20675 kPa	724.4
21120 kPa	724.6
21147 kPa	724.5
21168 kPa	724.7
21192 kPa	724.6
21219 kPa	724.7
21366 kPa	724.8
